Reference: US4188402A, “Derivatives of the D-threo-1-phenyl-2-trifluoroacetamido-1,3-propandediol” (Clesa S.p.A., priority 1977, dated 1980)
Converted amounts (≈) assume the structure as drawn.

How the values were obtained:
[1] = tested on: Staphylococcus albus 1238; experiment: MIC in vitro against thiamphenicol-resistant strain; type: cell-based; conditions: Staphylococcus albus 1238, thiamphenicol-resistant
From the text: (§1) Furthermore, the compounds of the present invention show a certain bacterial activity, both "in vitro" and in the presence of rabbit serum, in respect of some microorganism strains resistant against thiamphenicol (ie., […]; see Merck Index Ninth Edition, page 9034) as it appears from the following results: […]

[2] = tested on: Staphylococcus aureus 4180; experiment: as above; type: cell-based; conditions: Staphylococcus aureus 4180, thiamphenicol-resistant
From the text: as §1

[3] = tested on: Streptococcus faecalis Z 20; experiment: as above; type: cell-based; conditions: Enterococcus faecalis, Z20, Streptococcus faecalis Z 20, thiamphenicol-resistant
From the text: as §1

[4] = tested on: Streptococcus faecalis Z 61; experiment: as above; type: cell-based; conditions: Enterococcus faecalis, Z61, Streptococcus faecalis Z 61, thiamphenicol-resistant
From the text: as §1

[5] = tested on: Pseudomonas aeruginosa 50541; experiment: MIC in culture broth, in the presence of rabbit serum, against thiamphenicol-resistant strain; type: cell-based; conditions: Pseudomonas aeruginosa 50541, thiamphenicol-resistant
From the text: (§2) Furthermore, the compounds of the present invention show a certain bacterial activity, both "in vitro" and in the presence of rabbit serum, in respect of some microorganism strains resistant against thiamphenicol (ie., […]; see Merck Index Ninth Edition, page 9034) as it appears from the following results:
(§3) ** = tests carried out in culture broth, in the presence of rabbit serum.

Streptococcus faecalis = experiment: as above; type: cell-based; conditions: Enterococcus faecalis
From the text: as §2, §3

[6] = tested on: multocide NCTC 10722 Pasteurella; experiment: PD50 in experimental infection of the mouse by intraperitoneal inoculation (Table 3); type: in vivo; conditions: 120 h, treatment time 5 days, about 100 times the lethal amount at 50% i.p., Spearman-Karber
From the text: The study of the antibiotic activity of the derivatives of the present invention was completed by the determination of PD50 in experimental infections from multocide NCTC 10722 Pasteurella induced in the mouse by intraperitoneal inoculation of a bacterial amount equal to about 100 times the lethal amount at 50%. The determination of PD50 relating to the examined derivatives has been carried out according to the method of Spearman-Karber (L. Cavalli-Sforza "Analisi statistica per medici e biologi e analisi del dosaggio biologico"--Ed. Universitarie Boringhieri--Torino--1961, pages 173-175).

[7] = Hydrolysis of the esters in the animal organism; type: in vivo; conditions: ester at the alcoholic function
[8] = tested on: grampositive and gram-negative microorganisms as well as Proteus; experiment: Antibacterial activity of the esterified derivatives compared with Z 2100; conditions: after hydrolysis in the animal organism
Protocol: (§4) Insofar as the study of the antibacterial activity spectrum is concerned, this was performed by using the method of agar dilutions in a double series. The minimum inhibitory concentration (MIC) was performed against grampositive and gram-negative microorganisms as well as Proteus.

E. Coli K12 = experiment: MIC, agar dilutions in a double series, in vitro (Table 2); type: cell-based; conditions: Escherichia coli, E. Coli K12, agar dilution
Protocol: as §4

[9] = tested on: Past. multocide NCTC 10722; experiment: as above; type: cell-based; conditions: Past. multocide NCTC 10722, agar dilution
Protocol: as §4

Proteus morgani N 520 = experiment: as above; type: cell-based; conditions: Proteus morgani N 520, agar dilution
Protocol: as §4

S. aureus Oxford = experiment: as above; type: cell-based; conditions: Staphylococcus aureus, agar dilution
Protocol: as §4

Salmonelli Typhi M-VI = experiment: as above; type: cell-based
Protocol: as §4

Strep. agalactiae 4 b = experiment: as above; type: cell-based; conditions: Streptococcus agalactiae, agar dilution
Protocol: as §4

[10] = tested on: Strep. faecalis ATCC 10541; experiment: as above; type: cell-based; conditions: Enterococcus faecalis, ATCC10541, Strep. faecalis ATCC 10541, agar dilution
Protocol: as §4

Shighelli Boydii 4 = experiment: as above; type: cell-based; conditions: Shighelli Boydii 4, agar dilution
Protocol: as §4

Compound: CS(=O)(=O)c1ccc([C@@H](O)[C@@H](CO)NC(=O)C(Cl)Cl)cc1 [Thiamphenicol, reference compound]
- MIC [1]: 160 µg/mL (≈ 449 µM)
- MIC [2]: 160 µg/mL (≈ 449 µM)
- MIC [3]: 160 µg/mL (≈ 449 µM)
- MIC [4]: 160 µg/mL (≈ 449 µM)
- MIC [5]: 160 µg/mL
- MIC (Streptococcus faecalis): 320 µg/mL

Compound: CCCCCCCCCCCCCCCC(=O)OC[C@@H](NC(=O)C(F)(F)F)[C@H](O)c1ccc(S(C)(=O)=O)cc1 [Z 2112, D-(+)-threo-1-(p-methanesulphonylphenyl)-2-trifluoroacetamido-3-palmitoyloxy-1-propanol]
- ED50 ([6]; NCTC10722, po, per os): 21 mg/kg
- hydrolysis in the animal organism [7]: quickly hydrolyzed in the animal organism
- activity relative to Z 2100 [8]: show the same activity as Z 2100

Compound: CS(=O)(=O)c1ccc([C@@H](O)[C@@H](CO)NC(=O)C(F)(F)F)cc1 [Z 2100, D-(+)-threo-1-(p-methanesulphonylphenyl)-2-trifluoroacetamido-1,3-propanediol]
- MIC (E. Coli K12): 64 µg/mL (≈ 188 µM)
- MIC [9]: 2 µg/mL (≈ 5.86 µM)
- MIC (Proteus morgani N 520): 8 µg/mL (≈ 23.4 µM)
- MIC (S. aureus Oxford): 16 µg/mL (≈ 46.9 µM)
- MIC (Salmonelli Typhi M-VI): 32 µg/mL (≈ 93.8 µM)
- MIC (Strep. agalactiae 4 b): 16 µg/mL (≈ 46.9 µM)
- MIC [10]: 8 µg/mL (≈ 23.4 µM)
- MIC [1]: 40 µg/mL (≈ 117 µM)
- MIC [2]: 40 µg/mL (≈ 117 µM)
- MIC [3]: 40 µg/mL (≈ 117 µM)
- MIC [4]: 80 µg/mL (≈ 234 µM)
- MIC [5]: 80 µg/mL
- MIC (Streptococcus faecalis): 80 µg/mL
- ED50 ([6]; NCTC10722, po, per os): 19 mg/kg

Compound: CS(=O)(=O)c1ccc([C@@H](O)[C@@H](COC(=O)CN)NC(=O)C(F)(F)F)cc1 [Z 2117, D-(+)-threo-1-(p-methanesulphonylphenyl)-2-trifluoroacetamido-3-aminoacetoxy-1-propanol]
- ED50 ([6]; NCTC10722, sc, subcutaneous): 14.3 mg/kg
- hydrolysis in the animal organism [7]: quickly hydrolyzed in the animal organism
- activity relative to Z 2100 [8]: show the same activity as Z 2100

Compound: CSc1ccc([C@@H](O)[C@@H](CO)NC(=O)C(F)(F)F)cc1 [Z 2109, D-(-)-threo-1-(p-methylmercaptophenyl)-2-trifluoroacetamido-1,3-propanediol]
- MIC (E. Coli K12): 16 µg/mL (≈ 51.7 µM)
- MIC [9]: 4 µg/mL (≈ 12.9 µM)
- MIC (Proteus morgani N 520): 4 µg/mL (≈ 12.9 µM)
- MIC (S. aureus Oxford): 32 µg/mL (≈ 103 µM)
- MIC (Salmonelli Typhi M-VI): 64 µg/mL (≈ 207 µM)
- MIC (Shighelli Boydii 4): 32 µg/mL (≈ 103 µM)
- MIC (Strep. agalactiae 4 b): 64 µg/mL (≈ 207 µM)
- MIC [10]: 32 µg/mL (≈ 103 µM)
- ED50 ([6]; NCTC10722, po, per os): 16.6 mg/kg
